Experimental data published in patent US20090221559A1 (priority 2005, published 2009).

Experiments:
[1] = biological target: T1, HCV NS5B polymerase (His-tagged, C-terminal 21 amino acid deleted NS5B, HC-J4) (Hepatitis C virus genotype 1b, UniProt O92972); assay: NS5b polymerase assay (biochemical RdRp assay, 3H-GTP incorporation, SPA beads); set-up: species or system HCV genotype 1b; conditions: NS5B Polymerase Assay IC50 (μM)
T1 construct: The cDNA encoding NS5B amino acid 1-570 (HC-J4, genotype 1b); His tag (His6, from pET-21b) (C); made in house; host or cells: E. coli BL21 (DE3)
Procedure, shortened: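 His-tagged C-terminal-21-aa-deleted NS5B (genotype 1b, HC-J4) at 200 nM was preincubated 15 min at RT with compound on 5′-biotinylated oligo(rG13)/poly(rC) template/primer before NTPs. Reaction with 600 nM GTP plus 0.1 μCi 3H-GTP and 5 mM MgCl2 in Tris pH 7.5 ran 2 h at 25 °C. Stopped with EDTA/SPA beads for incorporation counting.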

[2] = system: HCV replicon RNA replication in Huh-7 luc/neo (Huh-Luc) cells; assay: HCV replicon assay (stable replicon cell reporter assay, luciferase read-out); assay type: cell-based, HCV type 1b; conditions: Hepatitis C virus, Huh-7, 72 h, read-out: Replicon Assay EC50 (μM), Huh-Luc cells, incubation of three days, luciferase activity
Procedure, shortened: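 Huh-7 cells stably carry a bicistronic HCV 1b NS3-NS5B subgenomic replicon with firefly luciferase and neo markers. Cells were plated with compound across a concentration range and incubated three days. Replication was measured as luciferase activity to give dose-response curves.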

T1 sequence (O92972 2417-3000, looked up, stated change not applied): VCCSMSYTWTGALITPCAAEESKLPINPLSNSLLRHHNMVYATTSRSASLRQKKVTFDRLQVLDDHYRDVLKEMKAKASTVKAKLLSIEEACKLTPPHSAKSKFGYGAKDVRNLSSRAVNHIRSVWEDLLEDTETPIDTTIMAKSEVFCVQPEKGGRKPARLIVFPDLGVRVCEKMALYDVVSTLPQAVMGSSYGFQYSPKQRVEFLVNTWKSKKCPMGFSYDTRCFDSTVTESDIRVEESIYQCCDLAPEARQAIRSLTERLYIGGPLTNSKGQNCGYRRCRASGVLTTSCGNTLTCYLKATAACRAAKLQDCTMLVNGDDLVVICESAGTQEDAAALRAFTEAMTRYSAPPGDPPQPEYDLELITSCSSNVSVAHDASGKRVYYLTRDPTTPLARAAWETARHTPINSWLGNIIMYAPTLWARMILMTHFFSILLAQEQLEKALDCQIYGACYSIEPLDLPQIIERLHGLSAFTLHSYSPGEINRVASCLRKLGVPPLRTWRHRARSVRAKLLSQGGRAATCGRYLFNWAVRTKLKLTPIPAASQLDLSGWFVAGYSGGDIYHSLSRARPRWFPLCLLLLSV

Q: How did the IC50 [1] turn out when `COc1ccc(C2CC(=O)C3=C(C2)Nc2ccccc2NC3c2cc(Br)ccc2OC)cc1` (stereo not drawn) [compound 335] was run?
A: > 42.7 µM

Q: What about the EC50 [2] of the same compound?
A: 11.9 µM

Q: `COc1ccc(C2CC(=O)C3=C(C2)Nc2ccccc2NC3c2cc(OC)ccc2OC)cc1` (stereo not drawn) [compound 336] was tested. Which IC50 [1] did it give?
A: > 42.7 µM

Q: What about the EC50 [2] of the same compound?
A: 13.8 µM

Q: What does the source list for `O=C1CC(c2ccc(Cl)cc2)CC2=C1C(c1cccc([N+](=O)[O-])c1)Nc1ccccc1N2` (stereo not drawn) [compound 337]?
A: IC50 [1]: > 42.7 µM; EC50 [2]: 17.5 µM

Q: For `CCCCOc1ccccc1C1Nc2ccccc2NC2=C1C(=O)CC(c1ccccc1)C2` (stereo not drawn) [compound 338], which IC50 [1] is on record?
A: > 42.7 µM

Q: And the EC50 [2]?
A: 16.9 µM

Q: With `COc1cc(C2Nc3ccccc3NC3=C2C(=O)CC(c2ccccc2)C3)cc(OC)c1OC` (stereo not drawn) [compound 339] as the compound, how does the IC50 [1] read?
A: > 42.7 µM

Q: What about the EC50 [2] of the same compound?
A: 9.15 µM

Q: Which IC50 [1] does the source give for `O=C1CC(c2ccc(Cl)cc2)CC2=C1C(c1ccccc1Cl)Nc1ccccc1N2` (stereo not drawn) [compound 340] here?
A: > 42.7 µM

Q: What about the EC50 [2] of the same compound?
A: 5.09 µM

Q: Which results are given for `COc1cc(C2Nc3ccccc3NC3=C2C(=O)CC(c2ccc(Cl)cc2)C3)cc(Br)c1O` (stereo not drawn) [compound 342]?
A: IC50 [1]: > 42.7 µM; EC50 [2]: 4.19 µM

Q: `O=C1CC(c2ccccc2)CC2=C1C(c1ccc(C(F)(F)F)cc1)Nc1ccccc1N2` (stereo not drawn) [compound 343] was tested. Which IC50 [1] did it give?
A: > 42.7 µM

Q: And the EC50 [2]?
A: 11 µM

Q: `Cc1ccc(C2Nc3ccccc3NC3=C2C(=O)CC(c2ccccc2)C3)cc1` (stereo not drawn) [compound 344] was tested. Which IC50 [1] did it give?
A: > 42.7 µM

Q: And the EC50 [2]?
A: 21.6 µM

Q: For `O=C1CC(c2ccccc2)CC2=C1C(c1ccccc1Br)Nc1ccccc1N2` (stereo not drawn) [compound 345], which IC50 [1] is on record?
A: > 42.7 µM

Q: What about the EC50 [2] of the same compound?
A: 21 µM

Q: With `O=C1CC(c2ccc(Cl)cc2)CC2=C1C(c1cccc(Cl)c1Cl)Nc1ccccc1N2` (stereo not drawn) [compound 346] as the compound, how does the IC50 [1] read?
A: > 42.7 µM

Q: And the EC50 [2]?
A: 24.6 µM

Q: What does the source list for `COc1cccc(C2Nc3ccccc3NC3=C2C(=O)CC(c2ccccc2)C3)c1OC` (stereo not drawn) [compound 347]?
A: IC50 [1]: > 42.7 µM; EC50 [2]: 20.7 µM

Q: How did the IC50 [1] turn out when `COc1cccc(C2Nc3ccccc3NC3=C2C(=O)CC(c2ccc(Cl)cc2)C3)c1OC` (stereo not drawn) [compound 348] was run?
A: 29.6 µM

Q: What about the EC50 [2] of the same compound?
A: 4.48 µM

Q: For `O=C1CC(c2ccc(Cl)cc2)CC2=C1C(c1ccccc1C(F)(F)F)Nc1ccccc1N2` (stereo not drawn) [compound 349], which IC50 [1] is on record?
A: > 42.7 µM

Q: What about the EC50 [2] of the same compound?
A: 2.86 µM

Q: What does the source list for `O=C1CC(c2ccc(Cl)cc2)CC2=C1C(c1cccc(Cl)c1)Nc1ccccc1N2` (stereo not drawn) [compound 350]?
A: IC50 [1]: 25.1 µM; EC50 [2]: 5.21 µM

Q: For `COc1ccc(C2Nc3ccccc3NC3=C2C(=O)CC(c2ccc(Cl)cc2)C3)cc1OC` (stereo not drawn) [compound 352], which IC50 [1] is on record?
A: > 42.7 µM

Q: What about the EC50 [2] of the same compound?
A: 9.61 µM

Q: With `CCOc1cc(C2Nc3ccccc3NC3=C2C(=O)CC(c2ccc(Cl)cc2)C3)cc(Br)c1O` (stereo not drawn) [compound 353] as the compound, how does the IC50 [1] read?
A: > 42.7 µM

Q: And the EC50 [2]?
A: 5.3 µM

Q: What does the source list for `Cc1cccc(C2Nc3ccccc3NC3=C2C(=O)CC(c2ccccc2)C3)c1` (stereo not drawn) [compound 354]?
A: IC50 [1]: > 42.7 µM; EC50 [2]: 20.5 µM

Q: Which IC50 [1] does the source give for `O=C1CC(c2ccc(Cl)cc2)CC2=C1C(c1ccc(Cl)c(Cl)c1)Nc1ccccc1N2` (stereo not drawn) [compound 355] here?
A: > 42.7 µM

Q: What about the EC50 [2] of the same compound?
A: 5.48 µM

Q: What does the source list for `COc1ccc(OC)c(C2Nc3ccccc3NC3=C2C(=O)CC(c2ccc(Cl)cc2)C3)c1` (stereo not drawn) [compound 356]?
A: IC50 [1]: > 42.7 µM; EC50 [2]: 16.1 µM

Q: Which IC50 [1] does the source give for `COc1ccc(C2CC(=O)C3=C(C2)Nc2ccccc2NC3c2cccc(Cl)c2Cl)cc1` (stereo not drawn) [compound 357] here?
A: > 42.7 µM

Q: And the EC50 [2]?
A: 7.01 µM

Q: For `Cc1ccc(C2Nc3ccccc3NC3=C2C(=O)CC(c2ccccc2)C3)cc1[N+](=O)[O-]` (stereo not drawn) [compound 358], which IC50 [1] is on record?
A: > 42.7 µM

Q: And the EC50 [2]?
A: 20.4 µM

Q: `COc1ccc(C2CC(=O)C3=C(C2)Nc2ccccc2NC3c2ccc(C)c([N+](=O)[O-])c2)cc1` (stereo not drawn) [compound 359] was tested. Which IC50 [1] did it give?
A: > 42.7 µM

Q: And the EC50 [2]?
A: 7.33 µM

Q: How did the IC50 [1] turn out when `COc1cccc(C2Nc3ccccc3NC3=C2C(=O)CC(c2ccc(Cl)cc2)C3)c1` (stereo not drawn) [compound 360] was run?
A: > 42.7 µM

Q: What about the EC50 [2] of the same compound?
A: 11.2 µM

Q: For `O=C1CC(c2ccccc2)CC2=C1C(c1cccc(Oc3ccccc3)c1)Nc1ccccc1N2` (stereo not drawn) [compound 361], which IC50 [1] is on record?
A: > 42.7 µM

Q: And the EC50 [2]?
A: 6.65 µM

Q: With `CSc1ccc(C2Nc3ccccc3NC3=C2C(=O)CC(c2ccccc2)C3)cc1` (stereo not drawn) [compound 362] as the compound, how does the IC50 [1] read?
A: 30.6 µM

Q: What about the EC50 [2] of the same compound?
A: 19.3 µM

Q: With `CCN(CC)c1ccc(C2Nc3ccccc3NC3=C2C(=O)CC(c2ccc(OC)cc2)C3)cc1` (stereo not drawn) [compound 363] as the compound, how does the IC50 [1] read?
A: > 42.7 µM

Q: And the EC50 [2]?
A: 25.8 µM

Q: Which results are given for `CN(C)c1ccc(C2Nc3ccccc3NC3=C2C(=O)CC(c2ccc(Cl)cc2)C3)cc1` (stereo not drawn) [compound 364]?
A: IC50 [1]: > 42.7 µM; EC50 [2]: 20.8 µM

Q: With `O=C1CC(c2ccccc2)CC2=C1C(c1ccccc1OCc1ccccc1)Nc1ccccc1N2` (stereo not drawn) [compound 365] as the compound, how does the IC50 [1] read?
A: 27.3 µM

Q: And the EC50 [2]?
A: 5.24 µM

Q: For `O=C1CC(c2ccc(Cl)cc2)CC2=C1C(c1ccccc1OCc1ccccc1)Nc1ccccc1N2` (stereo not drawn) [compound 366], which IC50 [1] is on record?
A: > 42.7 µM

Q: And the EC50 [2]?
A: 5.31 µM

Q: Which results are given for `CC(C)c1ccc(C2Nc3ccccc3NC3=C2C(=O)CC(c2ccccc2)C3)cc1` (stereo not drawn) [compound 367]?
A: IC50 [1]: > 42.7 µM; EC50 [2]: 24.6 µM

Q: `CSc1ccc(C2Nc3ccccc3NC3=C2C(=O)CC(c2ccc4c(c2)OCO4)C3)cc1` (stereo not drawn) [compound 368] was tested. Which IC50 [1] did it give?
A: > 42.7 µM

Q: And the EC50 [2]?
A: 14.9 µM

Q: Which results are given for `COc1ccc(C2CC(=O)C3=C(C2)Nc2ccccc2NC3c2ccccc2OC)cc1OC` (stereo not drawn) [compound 369]?
A: IC50 [1]: > 42.7 µM; EC50 [2]: 10 µM

Q: What does the source list for `COc1ccc(C2CC(=O)C3=C(C2)Nc2ccccc2NC3c2ccccc2OC(C)C)cc1OC` (stereo not drawn) [compound 370]?
A: IC50 [1]: > 42.7 µM; EC50 [2]: 3.43 µM

Q: Which results are given for `COc1ccc(OC)c(C2Nc3ccccc3NC3=C2C(=O)CC(c2ccc(OC)c(OC)c2)C3)c1` (stereo not drawn) [compound 371]?
A: IC50 [1]: > 42.7 µM; EC50 [2]: 3.74 µM

Q: Which results are given for `COc1ccc(C2CC(=O)C3=C(C2)Nc2ccccc2NC3c2ccc(OC)cc2OC)cc1` (stereo not drawn) [compound 372]?
A: IC50 [1]: > 42.7 µM; EC50 [2]: 1.94 µM

Q: For `O=C1CC(c2ccccc2)CC2=C1C(c1cccc(OCc3ccccc3)c1)Nc1ccccc1N2` (stereo not drawn) [compound 373], which IC50 [1] is on record?
A: > 42.7 µM

Q: What about the EC50 [2] of the same compound?
A: 9.42 µM

Q: Which IC50 [1] does the source give for `COC(=O)c1ccc(C2Nc3ccccc3NC3=C2C(=O)CC(c2ccccc2)C3)cc1` (stereo not drawn) [compound 374] here?
A: > 42.7 µM

Q: And the EC50 [2]?
A: 10.1 µM

Q: What does the source list for `COc1ccc(C2CC(=O)C3=C(C2)Nc2ccccc2NC3c2cc([N+](=O)[O-])ccc2Cl)cc1` (stereo not drawn) [compound 375]?
A: IC50 [1]: > 42.7 µM; EC50 [2]: 19.9 µM

Q: What does the source list for `CCN(CC)c1ccc(C2CC(=O)C3=C(C2)Nc2ccccc2NC3c2ccccc2)cc1` (stereo not drawn) [compound 376]?
A: IC50 [1]: > 42.7 µM; EC50 [2]: 9.45 µM

Q: `O=C1CC(c2ccc(Cl)cc2)CC2=C1C(c1ccc(C(F)(F)F)cc1)Nc1ccccc1N2` (stereo not drawn) [compound 377] was tested. Which IC50 [1] did it give?
A: > 42.7 µM

Q: And the EC50 [2]?
A: 4.46 µM

Q: For `CCOc1cc(C2Nc3ccccc3NC3=C2C(=O)CC(c2ccc(OC)cc2)C3)cc(Br)c1O` (stereo not drawn) [compound 378], which IC50 [1] is on record?
A: > 42.7 µM

Q: And the EC50 [2]?
A: 5.94 µM

Q: For `CCOc1cccc(C2Nc3ccccc3NC3=C2C(=O)CC(c2ccc(Cl)cc2)C3)c1` (stereo not drawn) [compound 379], which IC50 [1] is on record?
A: > 42.7 µM

Q: What about the EC50 [2] of the same compound?
A: 6.79 µM

Q: Which IC50 [1] does the source give for `O=C1CC(c2ccc(Cl)cc2)CC2=C1C(c1cccc(F)c1)Nc1ccccc1N2` (stereo not drawn) [compound 380] here?
A: > 42.7 µM

Q: And the EC50 [2]?
A: 8.63 µM

Q: `COc1ccc(C2CC(=O)C3=C(C2)Nc2ccccc2NC3c2ccccc2C)cc1` (stereo not drawn) [compound 381] was tested. Which IC50 [1] did it give?
A: > 42.7 µM

Q: And the EC50 [2]?
A: 4.77 µM

Q: What does the source list for `CSc1ccc(C2Nc3ccccc3NC3=C2C(=O)CC(c2ccc(Cl)cc2)C3)cc1` (stereo not drawn) [compound 382]?
A: IC50 [1]: > 42.7 µM; EC50 [2]: 16.7 µM

Q: What does the source list for `COc1ccc(C2CC(=O)C3=C(C2)Nc2ccccc2NC3c2ccccc2Cl)cc1` (stereo not drawn) [compound 383]?
A: IC50 [1]: > 42.7 µM; EC50 [2]: 17.3 µM

Q: `COc1ccc(C2CC(=O)C3=C(C2)Nc2ccccc2NC3c2ccc(C)cc2)cc1` (stereo not drawn) [compound 384] was tested. Which IC50 [1] did it give?
A: 4.58 µM

Q: And the EC50 [2]?
A: 15.9 µM
